The values below come from US10195204B2, “Methods of treating hemoglobinopathies” (DUKE UNIVERSITY, priority 2011, dated 2019).

The subject of experiment [1] is glycophorin A phosphorylation. In words: 32P labeling, glycophorin A immunoprecipitation and phosphorylation in SS RBCs. It is filed as cell-based, human. An excerpt: Glycophorin A phosphorylation and immunoprecipitation. […] Cells were then washed 4 times. […] Blots were immunostained with anti-glycophorin A mAb.
Experiment [2] deals with ERK1/2 phosphorylation in SS RBCs. In words: ERK1/2 phosphorylation in SS RBCs, Western blot (phosphoERK normalized to total ERK). It is filed as cell-based, human. How it is done:
Aliquots of packed RBCs were treated with various reagents to affect cAMP signaling or protein phosphorylation. […] Treated RBCs were then washed 5 times with 4 ml PBS with Ca^2+ and Mg^2+. Normal RBCs were used as controls. Prior to adhesion assays, treated RBCs were labeled with PKH 26 red fluorescent cell linker kit (Sigma), following the manufacturer's instructions.
Treated packed RBCs were lysed with hypotonic buffer (5 mM Na2HPO4+1 mM EDTA+0.1% NaN3, pH 8) containing 2 mM phenylmethylsulphonylfluoride (PMSF, Sigma), phosphatase inhibitor cocktail (Sigma) and protease inhibitor cocktail (Sigma). Protein separation by polyacrylamide gel electrophoresis using equal amounts of total RBC membrane ghost proteins per lane, after correcting total protein measurements for residual hemoglobin content, and Western blot^19 using the appropriate Ab were then performed. Mouse 3T3/A31 fibroblast lysate was used as a ERK1/2 positive control for immunoblots. For total ERK1/2, membranes blotted with anti-phosphoERK Ab were stripped and reexposed to Western blotting using anti-ERK1/2 Ab. Bands were analyzed densitometrically using ImageJ software downloaded from the NIH website. PhosphoERK1/2 data were normalized according to total ERK1/2 and are presented as fold change in ERK phosphorylation.

Another experiment concerns ERK1/2. To be noted: ERK1/2 from epinephrine-treated SS RBCs, n=4.
In experiment [3] the test system is human SS RBC adhesion to vascular endothelium and vaso-occlusion. As for the experimental part: All animal experiments were carried out in accordance with protocols approved by the Duke University Animal Care and Use Committee. Female athymic homozygous nude mice (nu-/nu-) were between 8-12 weeks of age (Charles River Laboratories, Wilmington, Mass.).
General anesthesia was achieved by intra-peritoneal injection of 100 mg/kg of ketamine (Abbott Laboratory, Chicago, Ill.) and 10 mg/kg of xylazine (Bayer, Shawnee Mission, Kans.). A double-sided titanium frame window chamber was surgically implanted into the dorsal skin fold under sterile conditions using a laminar flow hood. Surgery involved carefully removing the epidermal and dermal layers of one side of a dorsal skin fold, exposing the blood vessels of the subcutaneous tissue adjacent to the striated muscles of the opposing skin fold, and then securing the two sides of the chamber to the skin using stainless steel screws and sutures. A glass window was placed in the chamber to cover the exposed tissue and secured with a snap ring. Subsequently, animals were kept at 32-34° C. until in vivo studies were performed 3 days post-surgery.
Murine recombinant TNF-α was dissolved in normal saline at a concentration of 0.1 mg/mL and mice bearing dorsal-skin window chamber implants were given a single intraperitoneal (IP) injection of 20 μg/kg TNF-α and control animals received same volume of normal saline. […] Thirty minutes later, labeled human SS RBCs (300 μl hematocrit (Hct) 50% in PBS with Ca^2+ and Mg^2+) were then infused. […] Animals were placed on the stage of an Axoplan microscope (Carl Zeiss, Thornwood, N.Y.); temperature was maintained at 37° C. using a thermostatically controlled heating pad. […] Microcirculatory events and cell adhesion were simultaneously recorded using a Trinitron Color video monitor (PVM-1353 MD, Sony) and JVC videocassette recorder (BR-53784, VCR King, Durham, N.C.) connected to a digital video camera C2400 (Hamamatsu Photonics K.K., Japan). Arterioles were distinguished from venules based on: 1) observation of divergent flow as opposed to convergent flow; 2) birefringent appearance of vessel walls using transillumination, which is characteristic of arteriolar vascular smooth muscle; and 3) relatively straight vessel trajectory without evidence of tortuosity. Cell adherence was quantitated by considering cells attached to the vessel walls and immobile for 1 minute. The percentage of the length of vessels with diameters≤25 μm or >25 μm, occupied by SS RBCs was quantified as: % venular length occupied by SS RBCs=length of vessel wall with adherent cells/total length of the vessel segments analyzed×100.

Experiment [4] has as its system SS RBC adhesion to TNF-α-activated HUVECs. In words: Flow chamber adhesion of SS RBCs to TNF-α-activated HUVECs. It is filed as cell-based, human. As for the experimental part:
Cells were then washed three times with 5 ml PBS with Ca^2+ and Mg^2+. Prior to adhesion assays, washed treated SS RBCs were labeled with PKH 26 red fluorescent cell linker kit (Sigma-Aldrich, St. Louis, Mo.), following the manufacturer's instructions.
Graduated height flow chambers were used to quantify adhesion of RBCs to HUVECs substantially as previously described in detail.^4, 20 In some adhesion studies, slides coated with HUVECs were treated with human recombinant TNF-α at 10 ng/ml for 4 hours. Slides coated with HUVECs treated or not with TNF-α were then washed three times with 20 ml HBSS with 1.26 mM Ca^2+, 0.9 mM Mg^2+ (Gibco, Grand Island, N.Y.) warmed previously to 37° C. and then fit into a variable height flow chamber. The flow chamber was mounted on the stage of an inverted phase contrast microscope (Diaphot, Nikon Inc., Melville, N.Y.) connected to a thermoplate (Tokai Hit Co., Ltd., Japan) set at 37° C. Cells were observed using a video camera (RS photometrics,) attached to the microscope and connected to a Macintosh G4 computer. RBC (3 ml) suspended at 0.2% (vol/vol) in HBSS with Ca^2+, Mg^2+ were infused into the flow chamber and allowed to adhere to the slide for 10 min without flow. Before exposure to flow, a minimum of three fields at each of seven different locations along a line oriented normal to future flow were examined for the total number of fluorescent cells. Fluid flow (HBSS with Ca^2+, Mg^2+) was then started using a calibrated syringe pump. After exposure to flow, the fields were again examined and the number of adherent cells counted. The fraction of adherent cells was presented as (number of cells attached after exposure to flow)/(cells present per field before flow). The wall shear stress was calculated as:
[formula] τw=wall shear stress (dyne/cm^2); Q=volumetric flow rate (cm^3/s); μ is media viscosity, w is the width of the flow channel, and H(x) is the height of the flow chamber as a function of position along the microscope slide. Several investigators have shown that blood flow in small vessels may be continuous, with shear stresses of 1-2 dynes/cm^2, or flow may be intermittent. Our data were obtained using both intermittent and continuous flow conditions.

The mark [5] stands for this setting: 2 mg/kg U0126 in 0.4% DMSO i.v. 30 min prior to RBC infusion.

“Also recorded” adds a separate entry of the source. Where two headings read alike, the source gives them in different places.

Regarding `CNC[C@H](O)c1ccc(O)c(O)c1` [epinephrine], the “increase in glycophorin A phosphorylation over sham-treated SS RBCs” value in experiment [1] (epinephrine in the presence of SPI) is on record as 2.93±0.35 fold. In experiment [2], the “ERK phosphorylation vs 1 min exposure” value is recorded as “decreased”, the “ERK phosphorylation vs sham-treated” value was “markedly increased”, the “fold increase in ERK phosphorylation” value is given as 2.1±0.1 fold and the “increase in ERK phosphorylation above basal levels” value is 2±0.17 fold. Further, the “patients whose SS RBCs exhibited more than 1.5-fold elevation in ERK phosphorylation (responders)” value in experiment [2] came out at 40%. The “MBP phosphorylation by immunoprecipitated ERK1/2, increase vs sham-treated cells” value in the experiment on ERK1/2 turned out to be 2.1±0.3 fold.
As to `N#CC(=C(/N)Sc1ccccc1N)/C(C#N)=C(\N)Sc1ccccc1N` [U0126], the vaso-occlusion entry in experiment [3] (0.2 mg/kg U0126 in 0.04% DMSO i.v. 30 minutes prior to RBC infusion) is “no apparent vaso-occulsion”; in experiment [3] (setting [5]), “no apparent vaso-occlusion”. In experiment [3] (setting [5]), the “SS RBC adhesion to vascular endothelium” value is recorded as “very little adhesion”. Moreover, the “percentage venular length occupied by SS RBCs” value in experiment [3] (U0126 at 0.2 mg/kg, vessel diameter >25 μm) is given as “did not significantly reduce”; in experiment [3] (U0126 at 0.2 and 2 mg/kg, vessels 25 μm in diameter, vs placebo), “significant decrease”. Further, the “SS RBCs adherent to TNF-α-activated HUVECs” value in experiment [4] (SS RBCs pre-treated with 10 μM U0126) is listed as 18±5%. Besides, the “effect on SS RBC adhesion to TNF-α-activated HUVECs” value in experiment [4] (SS RBCs treated with MEK inhibitor (10 μM; RDEA119 1 and 10 μM)) is reported as “significantly reduced; also recorded: significantly inhibited”. Besides, the “effect on combined effect of epinephrine and SPI on glycophorin A phosphorylation” value in experiment [1] (SS RBCs pre-incubated with 10 μM U0126 for 1 h) is on record as “significantly decreased”. In experiment [2] (SS RBCs), the “effect on forskolin-induced ERK1/2 phosphorylation” value is reported as “prevented”. In experiment [2] (SS RBCs pre-incubated with inhibitor, then 20 nM epinephrine 1 min), the “effect on epinephrine-induced ERK1/2 phosphorylation” value was “significantly inhibited”. Moreover, in experiment [2] (SS RBCs, 2 μg/ml PTx), the “effect on PTx-induced ERK phosphorylation” value is reported as “blocked”.
